How the values were obtained:
[1] = species on record: Rattus norvegicus; assay: Biodistribution in rat liver in the presence of 0.001 M/0.008 M GdDTPA-AEP; type: ADME, organism-based; conditions: in vivo
[2] = species on record: Rattus norvegicus; assay: Biodistribution in rat blood in the presence of GdDTPA-HPDP at 15 min; type: ADME, organism-based; conditions: in vivo, 0.25 h
[3] = species on record: Rattus norvegicus; assay: Biodistribution in rat bone in the presence of GdDTPA at 4 hr; type: ADME, organism-based, Bone element; conditions: in vivo
[4] = species on record: Rattus norvegicus; assay: Biodistribution in rat heart in the presence of GdDTPA at 20 min; conditions: in vivo, 0.33 h
[5] = species on record: Rattus norvegicus; assay: Biodistribution in rat heart in the presence of GdDTPA-BDP at 30 min; type: ADME, organism-based; conditions: in vivo, 0.5 h
[6] = species on record: Rattus norvegicus; assay: Biodistribution in rat bone in the presence of GdDTPA-BDP at 4 hr; type: ADME, organism-based, Bone element; conditions: in vivo
[7] = species on record: Rattus norvegicus; assay: Biodistribution in rat bone in the presence of GdDTPA-BDP at 4 hr; conditions: in vivo
[8] = species on record: Rattus norvegicus; assay: Biodistribution in rat liver in the presence of NAC Gd/0.01 M GdDTPA-HPDP; type: ADME, organism-based; conditions: in vivo
[9] = species on record: Rattus norvegicus; assay: Biodistribution in rat liver in the presence of GdDTPA at 4 hr; type: ADME, organism-based; conditions: in vivo
[10] = species on record: Rattus norvegicus; assay: Biodistribution in rat bone in the presence of 0.05 M/0.05 M GdDTPA-AEP; type: ADME, organism-based, Bone element; conditions: in vivo
[11] = species on record: Rattus norvegicus; assay: Biodistribution in rat heart in the presence of 0.05 M GdDTPA-BDP; type: ADME, organism-based; conditions: in vivo
[12] = species on record: Rattus norvegicus; assay: Biodistribution in rat kidney in the presence of 0.001 M/0.008 M GdDTPA-AEP; conditions: in vivo
[13] = species on record: Rattus norvegicus; assay: Biodistribution in rat muscle in the presence of 0.01 M GdDTPA-BDP; type: ADME, organism-based, Muscle tissue; conditions: in vivo
[14] = species on record: Rattus norvegicus; assay: Biodistribution in rat bone in the presence of GdDTPA at 1 hr; type: ADME, organism-based, Bone element; conditions: in vivo
[15] = species on record: Rattus norvegicus; assay: Biodistribution in rat muscle in the presence of GdDTPA-HPDPat 30 min; type: ADME, organism-based, Muscle tissue; conditions: in vivo, 0.5 h
[16] = species on record: Rattus norvegicus; assay: Biodistribution in rat liver in the presence of 0.10 M GdDTPA-BDP; type: ADME, organism-based; conditions: in vivo
[17] = species on record: Rattus norvegicus; assay: Biodistribution in rat heart in the presence of GdDTPA at 1 hr; type: ADME, organism-based; conditions: in vivo
[18] = species on record: Rattus norvegicus; assay: Biodistribution in rat bone in the presence of GdDTPA-BDP at 20 min; conditions: in vivo, 0.33 h
[19] = species on record: Rattus norvegicus; assay: Biodistribution in rat liver in the presence of GdDTPA at 15 min; type: ADME, organism-based; conditions: in vivo, 0.25 h
[20] = species on record: Rattus norvegicus; assay: Biodistribution in rat bone in the presence of GdDTPA-HPDP at 1 hr; type: ADME, organism-based, Bone element; conditions: in vivo
[21] = species on record: Rattus norvegicus; assay: Biodistribution in rat heart in the presence of GdDTPA-HPDPat 15 min; type: ADME, organism-based; conditions: in vivo, 0.25 h
[22] = species on record: Rattus norvegicus; assay: Biodistribution in rat heart in the presence of GdDTPA; conditions: in vivo
[23] = species on record: Rattus norvegicus; assay: Biodistribution in rat heart in the presence of GdDTPA-BDP at 2 hr; conditions: in vivo
[24] = species on record: Rattus norvegicus; assay: Biodistribution in rat kidney in the presence of 0.05 M/0.08 M GdDTPA-HPDP; type: ADME, organism-based; conditions: in vivo
[25] = species on record: Rattus norvegicus; assay: Biodistribution in rat kidney in the presence of 0.01 M/0.01 M GdDTPA-AEP; type: ADME, organism-based; conditions: in vivo
[26] = species on record: Rattus norvegicus; assay: Biodistribution in rat muscle in the presence of GdDTPA-BDP at 4 hr; type: ADME, organism-based, Muscle tissue; conditions: in vivo
[27] = species on record: Rattus norvegicus; assay: Biodistribution in rat bone in the presence of GdDTPA-BDP at 1 h; conditions: in vivo
[28] = species on record: Rattus norvegicus; assay: Biodistribution in rat bone in the presence of GdDTPA at 30 min; type: ADME, organism-based, Bone element; conditions: in vivo, 0.5 h
[29] = species on record: Rattus norvegicus; assay: Biodistribution in rat bone in the presence of GdDTPA-HPDP at 30 min; type: ADME, organism-based, Bone element; conditions: in vivo, 0.5 h
[30] = species on record: Rattus norvegicus; assay: Biodistribution in rat blood in the presence of 0.01 M/0.01 M GdDTPA-AEP; type: ADME, organism-based; conditions: in vivo
[31] = species on record: Rattus norvegicus; assay: Biodistribution in rat muscle in the presence of GdDTPA-HPDPat 15 min; type: ADME, organism-based, Muscle tissue; conditions: in vivo, 0.25 h
[32] = species on record: Rattus norvegicus; assay: Biodistribution in rat liver in the presence of GdDTPA at 1 hr; type: ADME, organism-based; conditions: in vivo
[33] = species on record: Rattus norvegicus; assay: Biodistribution in rat heart in the presence of 0.05 M/0.08 M GdDTPA-HPDP; type: ADME, organism-based; conditions: in vivo
[34] = species on record: Rattus norvegicus; assay: Biodistribution in rat bone in the presence of NAC Gd/0.01 M GdDTPA-HPDP; type: ADME, organism-based, Bone element; conditions: in vivo
[35] = species on record: Rattus norvegicus; assay: Biodistribution in rat kidney in the presence of 0.05 M/0.05 M GdDTPA-AEP; type: ADME, organism-based; conditions: in vivo
[36] = species on record: Rattus norvegicus; assay: Biodistribution in rat liver in the presence of 0.05 M/0.08 M GdDTPA-HPDP; type: ADME, organism-based; conditions: in vivo
[37] = species on record: Rattus norvegicus; assay: Biodistribution in rat spleen in the presence of 0.01 M GdDTPA-BDP; type: ADME, organism-based; conditions: in vivo
[38] = species on record: Rattus norvegicus; assay: Biodistribution in rat heart in the presence of NAC Gd/0.01 M GdDTPA-HPDP; type: ADME, organism-based; conditions: in vivo
[39] = species on record: Rattus norvegicus; assay: Biodistribution in rat bone in the presence of 0.10 M/0.11 M GdDTPA-AEP; type: ADME, organism-based, Bone element; conditions: in vivo
[40] = species on record: Rattus norvegicus; assay: Biodistribution in rat bone in the presence of 0.01 M GdDTPA-BDP; type: ADME, organism-based, Bone element; conditions: in vivo
[41] = species on record: Rattus norvegicus; assay: Biodistribution in rat blood in the presence of 0.05 M/0.05 M GdDTPA-AEP; type: ADME, organism-based; conditions: in vivo
[42] = species on record: Rattus norvegicus; assay: Biodistribution in rat bone in the presence of 0.05 M/0.08 M GdDTPA-HPDP; type: ADME, organism-based, Bone element; conditions: in vivo
[43] = species on record: Rattus norvegicus; assay: Biodistribution in rat kidney in the presence of 0.01 M GdDTPA-BDP; type: ADME, organism-based; conditions: in vivo
[44] = species on record: Rattus norvegicus; assay: Biodistribution in rat muscle in the presence of GdDTPA-BDPat 15 min; type: ADME, organism-based, Muscle tissue; conditions: in vivo, 0.25 h
[45] = species on record: Rattus norvegicus; assay: Biodistribution in rat heart in the presence of 0.001 M/0.008 M GdDTPA-AEP; conditions: in vivo

O=C(O)CN(CCN(CC(=O)O)CC(=O)O)CCN(CC(=O)O)CC(=O)O [PENTETIC ACID] showed an ID/organ [1] of 0.239%, an ID/organ [2] of 4.07% and an ID/organ [3] of 0.287%. For the same compound, the ID/organ [4] was 0.097%, the ID/organ [5] was 17.6% and the ID/organ [6] was 18.5%. The ID/organ [7] was 18.5%, the ID/organ [8] was 0.082% and the ID/organ [9] was 0.163%. It also gave an ID/organ [10] of 0.483%, an ID/organ [11] of 0.048% and an ID/organ [12] of 0.268%. For the same compound, the ID/organ [13] was 4.38%, the ID/organ [14] was 0.779% and the ID/organ [15] was 4.09%. For the same compound, the ID/organ [16] was 0.795%, the ID/organ [17] was 0.019% and the ID/organ [18] was 11%. It also gave an ID/organ [19] of 1.59%, an ID/organ [20] of 20% and an ID/organ [21] of 0.081%. The ID/organ [22] was 0.019%, the ID/organ [23] was 0.048% and the ID/organ [24] was 0.423%. The ID/organ [25] was 0.222%, the ID/organ [26] was 4.5% and the ID/organ [27] was 17.6%. It also gave an ID/organ [28] of 0.779%, an ID/organ [29] of 16.8% and an ID/organ [30] of 0.503%. It also gave an ID/organ [31] of 6.36%, an ID/organ [32] of 0.267% and an ID/organ [33] of 0.007%. It also gave an ID/organ [34] of 65.7%, an ID/organ [35] of 0.264% and an ID/organ [36] of 0.109%. It also gave an ID/organ [37] of 0.185%, an ID/organ [38] of 0.032% and an ID/organ [39] of 16.4%. For the same compound, the ID/organ [40] was 20.5%, the ID/organ [41] was 0.556% and the ID/organ [42] was 17.6%. For the same compound, the ID/organ [43] was 0.476%, the ID/organ [44] was 8.97% and the ID/organ [45] was 0.004%.

Reference: ChEMBL document CHEMBL1124314, “Development of phosphonate derivatives of gadolinium chelates for NMR imaging of calcified soft tissues” (J Med Chem, 1989)
